# Laboratory results: patent US20120010179A1, “Methods of using a thiazole derivative” (priority 2006, published 2012)
# System: patients with COPD
# Assay: Pulmonary function tests (spirometry FEV1, FVC), tetomilast with inhaled albuterol, crossover study (Example 1)
# Format: in vivo, human
# Conditions: for Estimated Treatment Effect, change from baseline in FEV1 (tetomilast versus placebo) / Estimated Treatment Effect, change from baseline in FVC (tetomilast versus placebo) / LS Mean change from baseline in FEV1 (repeated measures ANOVA) / LS Mean change from baseline in FVC (repeated measures ANOVA) / Mean (SD) change from baseline in FEV1 / Mean (SD) change from baseline in FVC: Baseline (Day 0); for Estimated Treatment Effect, change from baseline in FEV1 (tetomilast versus placebo) / Estimated Treatment Effect, change from baseline in FVC (tetomilast versus placebo): both with inhaled albuterol; for LS Mean change from baseline in FEV1 (repeated measures ANOVA) / LS Mean change from baseline in FVC (repeated measures ANOVA) / Mean (SD) change from baseline in FEV1 / Mean (SD) change from baseline in FVC: tetomilast 50 mg QD + inhaled albuterol
# Method: Pulmonary function tests were conducted throughout the study to monitor the subjects' respiratory status. Flow volume curves were collected via spirometry. Combivent® (Boehringer Ingleheim Pharmaceuticals, Inc., Ridgefield Conn.), which was used for short-acting rescues as needed throughout the studies described below, was withheld for 6 hours prior to any spirometric testing. Spirometry testing was performed at screening, baseline (Day 0), and at specific times during the treatment period. Each subject could have up to 5 spirometric readings at any study time point. Spirometric readings were performed using equipment from the central provider, Quantum Research, Inc. (Louisville, Colo.). All spirometry readings were recorded and sent to Quantum Research, Inc. for analysis
# For the spirometric readings, the best effort was reported as follows. The highest acceptable forced expiratory volume in one second (FEV1) value was selected as the “best” of the given test session. If two or more FEV1 values were tied as highest, the sum of FEV1 and forced vital capacity (FVC) for those efforts was used. If both conditions were equal between the two efforts, the values reported were taken from the effort that occurred first, chronologically, based on date and time of the effort.
# This study was a multicenter, randomized, double-blind, placebo-controlled, crossover, multiple dose, outpatient study in 27 patients with COPD. All subjects underwent a 28-day washout from inhaled corticosteroids and/or long-acting bronchodilators and/or continuous oxygen therapy (≧16 hours per day) and a 7-day washout from oral beta2-agonists and/or oral theophylline salts prior to baseline. Randomized subjects received an 8-day administration of oral placebo or tetomilast 50 mg oral dose (2×25 mg tablets) once daily (QD). On study Day 8, four consecutive doses of inhaled albuterol (90 μg albuterol base per puff) were given via a metered dose inhaler (MDI) and holding chamber (Ventolin®, GlaxoSmithKline, Research Triangle Park, N.C.), one dose every 30 minutes over the course of 90 minutes at doses of 90 μg+90 μg+180 μg+360 μg for a total dose of 720 μg (albuterol base) or 8 puffs.
# Subjects entered a 7-day washout period (study days 9 through 15) and were then crossed over to the alternate treatment arm (placebo or tetomilast 50 mg oral dose). On study [0105] Day 23, the inhaled albuterol multiple dosing was repeated.
# On Days 1-6 and 17-21, subjects were instructed to take their oral study medication (placebo or tetomilast 50 mg) QD with 8 ounces of water immediately before breakfast. Subjects assigned to the placebo arm received two placebo tablets QD. On Days 7, 8, 16, 22, and 23, subjects took their oral medication (placebo or tetomilast 50 mg) at the clinic in the presence of the study staff.
# Combivent® inhalation aerosol use was allowed for short-acting rescue as needed throughout the study except on study days where PK samples were collected, on days when the multiple doses of inhaled albuterol were administered in the clinic, and/or on days when spirometry testing was performed. On all study days where PK samples were collected, Combivent® was withheld 6 hours prior to the PK draw. Additionally, on study Days 8 and 23 (when the multiple doses of inhaled albuterol were administered in the clinic), Combivent® was withheld 6 hours prior to PK assessment and throughout the duration of the clinic visit. Combivent® was withheld for six hours prior to spirometry testing. The recommended dose of Combivent® Inhalation Aerosol is two inhalations four times a day. In this study, subjects were permitted to take additional inhalations as required; however, the total number of inhalations was not to exceed 12 in 24 hours. Subjects were to “test-spray” three times before using for the first time and in cases where the aerosol had not been used for more than 24 hours. […]
compound,measurement,setting,value
"CCOc1ccc(-c2nc(-c3cccc(C(=O)O)n3)cs2)cc1OCC [Tetomilast, 2-(3,4-diethoxyphenyl)-4-(2-carboxy-6-pyridyl)thiazole]","Estimated Treatment Effect, change from baseline in FEV1 (tetomilast versus placebo)","Day 8/23, 5 min postdose",0.02 L
same,"Estimated Treatment Effect, change from baseline in FVC (tetomilast versus placebo)","Day 8/23, 5 min postdose",0.06 L
same,LS Mean change from baseline in FEV1 (repeated measures ANOVA),"Day 8/23, 5 min postdose",0.19 L
same,LS Mean change from baseline in FVC (repeated measures ANOVA),"Day 8/23, 5 min postdose",0.31 L
same,Mean (SD) change from baseline in FEV1,"Day 8/23, 5 min postdose",0.19 (0.19) L
same,Mean (SD) change from baseline in FVC,"Day 8/23, 5 min postdose",0.30 (0.28) L
same,"Estimated Treatment Effect, change from baseline in FEV1 (tetomilast versus placebo)","Day 8/23, 25 min postdose",0.06 L
same,"Estimated Treatment Effect, change from baseline in FVC (tetomilast versus placebo)","Day 8/23, 25 min postdose",0.11 L
same,LS Mean change from baseline in FEV1 (repeated measures ANOVA),"Day 8/23, 25 min postdose",0.21 L
same,LS Mean change from baseline in FVC (repeated measures ANOVA),"Day 8/23, 25 min postdose",0.31 L
same,Mean (SD) change from baseline in FEV1,"Day 8/23, 25 min postdose",0.21 (0.20) L
same,Mean (SD) change from baseline in FVC,"Day 8/23, 25 min postdose",0.31 (0.38) L
same,"Estimated Treatment Effect, change from baseline in FEV1 (tetomilast versus placebo)","Day 8/23, 35 min postdose",0.05 L
same,"Estimated Treatment Effect, change from baseline in FVC (tetomilast versus placebo)","Day 8/23, 35 min postdose",0.09 L
same,LS Mean change from baseline in FEV1 (repeated measures ANOVA),"Day 8/23, 35 min postdose",0.26 L
same,LS Mean change from baseline in FVC (repeated measures ANOVA),"Day 8/23, 35 min postdose",0.41 L
same,Mean (SD) change from baseline in FEV1,"Day 8/23, 35 min postdose",0.26 (0.18) L
same,Mean (SD) change from baseline in FVC,"Day 8/23, 35 min postdose",0.41 (0.34) L
same,"Estimated Treatment Effect, change from baseline in FEV1 (tetomilast versus placebo)","Day 8/23, 55 min postdose",0.08 L
same,"Estimated Treatment Effect, change from baseline in FVC (tetomilast versus placebo)","Day 8/23, 55 min postdose",0.15 L
same,LS Mean change from baseline in FEV1 (repeated measures ANOVA),"Day 8/23, 55 min postdose",0.28 L
same,LS Mean change from baseline in FVC (repeated measures ANOVA),"Day 8/23, 55 min postdose",0.39 L
same,Mean (SD) change from baseline in FEV1,"Day 8/23, 55 min postdose",0.28 (0.19) L
same,Mean (SD) change from baseline in FVC,"Day 8/23, 55 min postdose",0.38 (0.31) L
same,"Estimated Treatment Effect, change from baseline in FEV1 (tetomilast versus placebo)","Day 8/23, 65 min postdose",0.08 L
same,"Estimated Treatment Effect, change from baseline in FVC (tetomilast versus placebo)","Day 8/23, 65 min postdose",0.18 L
same,LS Mean change from baseline in FEV1 (repeated measures ANOVA),"Day 8/23, 65 min postdose",0.32 L
same,LS Mean change from baseline in FVC (repeated measures ANOVA),"Day 8/23, 65 min postdose",0.51 L
same,Mean (SD) change from baseline in FEV1,"Day 8/23, 65 min postdose",0.32 (0.19) L
same,Mean (SD) change from baseline in FVC,"Day 8/23, 65 min postdose",0.52 (0.37) L
same,"Estimated Treatment Effect, change from baseline in FEV1 (tetomilast versus placebo)","Day 8/23, 85 min postdose",0.07 L
same,"Estimated Treatment Effect, change from baseline in FVC (tetomilast versus placebo)","Day 8/23, 85 min postdose",0.13 L
same,LS Mean change from baseline in FEV1 (repeated measures ANOVA),"Day 8/23, 85 min postdose",0.33 L
same,LS Mean change from baseline in FVC (repeated measures ANOVA),"Day 8/23, 85 min postdose",0.48 L
same,Mean (SD) change from baseline in FEV1,"Day 8/23, 85 min postdose",0.33 (0.19) L
same,Mean (SD) change from baseline in FVC,"Day 8/23, 85 min postdose",0.47 (0.37) L
same,"Estimated Treatment Effect, change from baseline in FEV1 (tetomilast versus placebo)","Day 8/23, 95 min postdose",0.07 L
same,"Estimated Treatment Effect, change from baseline in FVC (tetomilast versus placebo)","Day 8/23, 95 min postdose",0.19 L
same,LS Mean change from baseline in FEV1 (repeated measures ANOVA),"Day 8/23, 95 min postdose",0.36 L
same,LS Mean change from baseline in FVC (repeated measures ANOVA),"Day 8/23, 95 min postdose",0.55 L
same,Mean (SD) change from baseline in FEV1,"Day 8/23, 95 min postdose",0.36 (0.19) L
same,Mean (SD) change from baseline in FVC,"Day 8/23, 95 min postdose",0.55 (0.40) L
same,"Estimated Treatment Effect, change from baseline in FEV1 (tetomilast versus placebo)","Day 8/23, 115 min postdose",0.07 L
same,"Estimated Treatment Effect, change from baseline in FVC (tetomilast versus placebo)","Day 8/23, 115 min postdose",0.18 L
same,LS Mean change from baseline in FEV1 (repeated measures ANOVA),"Day 8/23, 115 min postdose",0.35 L
same,LS Mean change from baseline in FVC (repeated measures ANOVA),"Day 8/23, 115 min postdose",0.54 L
same,Mean (SD) change from baseline in FEV1,"Day 8/23, 115 min postdose",0.35 (0.18) L
same,Mean (SD) change from baseline in FVC,"Day 8/23, 115 min postdose",0.53 (0.44) L
same,"Estimated Treatment Effect, change from baseline in FEV1 (tetomilast versus placebo)","Day 8/23, 175 min postdose",0.09 L
same,"Estimated Treatment Effect, change from baseline in FVC (tetomilast versus placebo)","Day 8/23, 175 min postdose",0.15 L
same,LS Mean change from baseline in FEV1 (repeated measures ANOVA),"Day 8/23, 175 min postdose",0.36 L
same,LS Mean change from baseline in FVC (repeated measures ANOVA),"Day 8/23, 175 min postdose",0.53 L
same,Mean (SD) change from baseline in FEV1,"Day 8/23, 175 min postdose",0.36 (0.21) L
same,Mean (SD) change from baseline in FVC,"Day 8/23, 175 min postdose",0.52 (0.36) L
same,"Estimated Treatment Effect, change from baseline in FEV1 (tetomilast versus placebo)","Day 8/23, 235 min postdose",0.07 L
same,"Estimated Treatment Effect, change from baseline in FVC (tetomilast versus placebo)","Day 8/23, 235 min postdose",0.09 L
same,LS Mean change from baseline in FEV1 (repeated measures ANOVA),"Day 8/23, 235 min postdose",0.34 L
same,LS Mean change from baseline in FVC (repeated measures ANOVA),"Day 8/23, 235 min postdose",0.42 L
same,Mean (SD) change from baseline in FEV1,"Day 8/23, 235 min postdose",0.34 (0.25) L
same,Mean (SD) change from baseline in FVC,"Day 8/23, 235 min postdose",0.42 (0.48) L
same,"Estimated Treatment Effect, change from baseline in FEV1 (tetomilast versus placebo)","Day 8/23, 295 min postdose",0.05 L
same,"Estimated Treatment Effect, change from baseline in FVC (tetomilast versus placebo)","Day 8/23, 295 min postdose",0.19 L
same,LS Mean change from baseline in FEV1 (repeated measures ANOVA),"Day 8/23, 295 min postdose",0.25 L
same,LS Mean change from baseline in FVC (repeated measures ANOVA),"Day 8/23, 295 min postdose",0.38 L
same,Mean (SD) change from baseline in FEV1,"Day 8/23, 295 min postdose",0.25 (0.29) L
same,Mean (SD) change from baseline in FVC,"Day 8/23, 295 min postdose",0.37 (0.49) L
same,"Estimated Treatment Effect, change from baseline in FEV1 (tetomilast versus placebo)","Day 8/23, 355 min postdose",0.13 L
same,"Estimated Treatment Effect, change from baseline in FVC (tetomilast versus placebo)","Day 8/23, 355 min postdose",0.24 L
same,LS Mean change from baseline in FEV1 (repeated measures ANOVA),"Day 8/23, 355 min postdose",0.25 L
same,LS Mean change from baseline in FVC (repeated measures ANOVA),"Day 8/23, 355 min postdose",0.34 L
same,Mean (SD) change from baseline in FEV1,"Day 8/23, 355 min postdose",0.25 (0.24) L
same,Mean (SD) change from baseline in FVC,"Day 8/23, 355 min postdose",0.34 (0.39) L
same,"effect on inhaled albuterol response (FEV1, FVC), exploratory repeated measures analysis","inhaled albuterol combined with tetomilast versus inhaled albuterol alone, Day 8/23",possible potentiation of the effect of inhaled albuterol
same,"FEV1 steady-state (predose) baseline value, Mean (SD)","predose Day 8/23, on tetomilast 50 mg QD, prior to inhaled albuterol",1.40 (0.61) L
